Test results published in US5639751A, “N-acyl-2,3-benzodiazepine derivatives for treating acute and chronic neurodegenerative disorders” (priority 1990, dated 1997).
Structures can show the parent of a compound that is named as a salt. Where two headings read alike, the source gives them in different places.

Key:
[1] = tested on: male CFLP mice; assay: Anticonvulsive effect in mice, pentetrazole; format: in vivo; conditions: Mus musculus, po, read-out: ED50 p.o., Pentetrazole
Description: (§1) The anticonvulsive effect of the compounds of the formula (I) was measured by using the electroshock test [J. Pharmacol. Exp. Ther. 106, 319 (1952)], furthermore by using various chemical agents such as pentetrazole [J. Pharmacol. Exp. Ther. 108, 168 (1953)], strychnine [J. Pharmacol. Exp. Ther. 129, 75 (1960)], bemegride, nicotine and 4-aminopyridine. The test compounds were orally administered in 3 doses, to 10 male CFLP mice per dose.

[2] = tested on: male CFLP mice; assay: Anticonvulsive effect in mice, electroshock test; format: in vivo; conditions: Mus musculus, po, read-out: ED50 p.o., ES (electroshock)
Description: as §1

[3] = tested on: CFLP mice; assay: Inclined screen test in mice; format: in vivo; conditions: Mus musculus, ip, read-out: ED50 i.p., inclined screen test
Description: In Randall's inclined screen test [J. Pharmacol. Exp. Ther. 129, 163 (1960)] the compounds were applied in 3 i.p. doses to 10 CFLP mice per dose.

[4] = tested on: mice; assay: Rotarod test in mice; format: in vivo; conditions: Mus musculus, ip, read-out: ED50 i.p., rotarod test
Description: The rotarod test was used to measure muscular tone and motor co-ordination [J. Am. Pharm. Assoc. 46, 208 (1957)].

[5] = tested on: cats; assay: Effects on spinal root reflex potentials in spinalized and immobilized cats; format: in vivo; conditions: for minimal effective dose: Felis catus
Description: The effect of compound of Example 15(16) on the spinal root potentials in cats was tested in spinalized and immobilized animals [Neuropharmacology 21, 161 (1989)].

[6] = tested on: male CFLP mice; assay: Anticonvulsive effect in mice, strychnine; format: in vivo; conditions: Mus musculus, po, read-out: ED50 p.o., Strychnine
Description: as §1

[7] = tested on: male CFLP mice; assay: Anticonvulsive effect in mice, bemegride; format: in vivo; conditions: Mus musculus, po, read-out: ED50 p.o., Bemegride
Description: as §1

[8] = tested on: male CFLP mice; assay: Anticonvulsive effect in mice, nicotine; format: in vivo; conditions: Mus musculus, po
Description: as §1

[9] = tested on: male CFLP mice; assay: Anticonvulsive effect in mice, 4-aminopyridine; format: in vivo; conditions: Mus musculus, po, read-out: ED50 p.o., 4-AP (4-aminopyridine)
Description: as §1

[10] = Acute toxicity in mice; conditions: mouse, in vivo
Description: The cause of mortality was respiratory insufficiency developing within 1 to 2 hours after i.p. administration and within 10 to 20 hours after oral application.

[11] = tested on: mice; assay: Protection against methamphetamine-induced dopaminergic neurotoxicity, in mice; format: in vivo; conditions: METH 2×20 mg/kg i.p., Example 128 3×5 mg/kg i.p., MK-801 3×2.5 mg/kg i.p.
Description: High doses of methamphetamine (2×20 mg/kg i.p.) decrease the striatal level of dopamine, which can be prevented by glutamate antagonists, e.g. the NMDA-antagonist MK-801 [Science 243, 398 (1989)].

Row | SMILES | ED50 ([1]; mice, p.o.) [mg/kg] | ED50 ([2]; mice, p.o.) [mg/kg] | ED50 [6] [mg/kg] | ED50 [8] [mg/kg] | ED50 ([9]; mice, p.o.) [mg/kg] | ED50 ([7]; mice, p.o.) [mg/kg] | LD50 ([10]; ip, read-out: LD50 i.p.) [mg/kg] | LD50 ([10]; po, read-out: LD50 p.o.) [mg/kg] | ED50 ([3]; mice, i.p.) [mg/kg] | ED50 ([4]; mice, i.p.) [mg/kg] | other results
1 | CC1=NN=C(c2ccc(NC(=O)C(C)N)cc2)c2cc3c(cc2C1)OCO3 (racemic) [Example 69] | > 100 | 57 | – | – | – | – | – | – | – | – | –
2 | NCC(CC(=O)O)c1ccc(Cl)cc1 (stereo not drawn) [Baclofen, β-(aminomethyl)-4-chlorobenzeneprioionic acid, reference compound] | – | – | – | – | – | – | – | – | – | – | ED50 [3]: 26 mg/kg; ED50 [4]: 12.5 mg/kg
3 | CN1C(=O)CN=C(c2ccccc2)c2cc(Cl)ccc21 [Diazepam, 7-chloro-1,3-dihydro-1-methyl-5-phenyl-2H-1,4-benzodiazepin-2-one, reference compound] | – | – | 15 | 1.85 | – | – | – | – | – | – | Effect on both dorsal root responses [5]: markedly potentiated; minimal effective dose ([5]; read-out: Minimal effective dose, inhibition of polysynaptic reflexes): < 0.1 mg/kg; minimal effective dose ([5]; read-out: Minimal effective doses, potentiation of dorsal root responses): ~0.1 mg/kg; Maximal inhibition of polysynaptic reflexes ([5]; partial inhibition): ≤ 50%; Effect on monosynaptic reflexes ([5]; up to 3.2 mg/kg): did not affect; ED50 [7]: 0.58 mg/kg; ED50 [1]: 0.86 mg/kg; ED50 [2]: 18 mg/kg
4 | CCC(=O)N1N=C(c2ccc(N)cc2)c2cc3c(cc2CC1C)OCO3 (stereo not drawn) [Example 18] | – | – | > 100 | 16 | – | – | – | – | – | – | ED50 [3]: 31 mg/kg; ED50 [4]: 7.5 mg/kg; ED50 [9]: 16 mg/kg; ED50 [7]: 20 mg/kg; ED50 [1]: 29 mg/kg; ED50 [2]: 17.5 mg/kg
5 | CC(=O)N(C(C)=O)c1ccc(C2=NN(C(C)=O)C(C)Cc3cc4c(cc32)OCO4)cc1 (stereo not drawn) [Example 39, 1-(4-Diacetylaminophenyl)-3-acetyl-4-methyl-7,8-methylenedioxy-3,4-dihydro-5H-2,3-benzodiazepine] | 170 | 53 | – | – | 29 | > 200 | 271 | > 600 | – | – | –
6 | CC(=O)Nc1ccc(C2=NN(C(C)=O)C(C)Cc3cc4c(cc32)OCO4)cc1 (stereo not drawn) [Example 42, 1-(4-Acetylaminophenyl)-3-acetyl-4-methyl-7,8-methylenedioxy-3,4-dihydro-5H-2,3-benzodiazepine] | 33 | 24 | 28 | 155 | 34 | 24 | 120 | 185 | 42 | 8.1 | –
7 | CCC(=O)Nc1ccc(C2=NN(C(=O)CC)C(C)Cc3cc4c(cc32)OCO4)cc1 (stereo not drawn) [Example 45, 1-(4-Propionylaminophenyl)-3-propionyl-4-methyl-7,8-methylenedioxy-3,4-dihydro-5H-2,3-benzodiazepine] | 44 | 27 | > 100 | 23 | 34 | 51 | 98.4 | 206 | 35 | 10 | –
8 | CC(=O)N1N=C(c2ccc(NC=O)cc2)c2cc3c(cc2CC1C)OCO3 (stereo not drawn) [Example 46] | 57 | 20 | > 100 | 80 | 17 | 56 | 173 | 162 | – | – | –
9 | CCC(=O)Nc1ccc(C2=NN(C(C)=O)C(C)Cc3cc4c(cc32)OCO4)cc1 (stereo not drawn) [Example 48] | 30.5 | 10.5 | > 100 | 25 | 20 | 33 | 103 | 149 | 20.5 | 7.2 | –
10 | CCC(=O)N1N=C(c2ccc(NC(C)=O)cc2)c2cc3c(cc2CC1C)OCO3 (stereo not drawn) [Example 49] | 53 | 25 | > 100 | 45 | 28 | 43 | – | – | 36 | 9.4 | –
11 | COCC(=O)Nc1ccc(C2=NN(C(C)=O)C(C)Cc3cc4c(cc32)OCO4)cc1 (stereo not drawn) [Example 52] | 36 | 17.5 | > 100 | 13.5 | 24 | 29 | 117 | 188 | 21 | 4.8 | –
12 | CCC(=O)Nc1ccc(C2=NN(C=O)C(C)Cc3cc4c(cc32)OCO4)cc1 (stereo not drawn) [Example 60] | 62 | 24 | – | – | – | – | – | – | – | – | –
13 | CC(=O)N1N=C(c2ccc(NC(=O)C(F)(F)F)cc2)c2cc3c(cc2CC1C)OCO3 (stereo not drawn) [Example 62] | 56 | 12.5 | > 100 | 31 | 29 | 36 | 136 | 160 | 25.5 | 7.8 | –
14 | CC1=NN=C(c2ccc(NC(=O)CN)cc2)c2cc3c(cc2C1)OCO3 [Example 66, 1-(4-Glycylaminophenyl)-4-methyl-7,8-methylenedioxy-5H-2,3-benzodiazepine] | 135 | 42 | 105 | 105 | 84 | > 100 | 205 | 281 | 52 | 18.5 | –
15 | CC(=O)N1N=C(c2ccc(NC(=O)CN)cc2)c2cc3c(cc2CC1C)OCO3 (stereo not drawn) [Example 73] | 62 | 16 | > 100 | 53 | 28 | 49 | 143 | 168 | 27 | 6.3 | –
16 | CC(=O)N1N=C(c2ccc(NC(=O)CN(C)C)cc2)c2cc3c(cc2CC1C)OCO3 (stereo not drawn) [Example 107, 1-[4-(N,N-dimethylglycylamino)phenyl]-3-acetyl-4-methyl-7,8-methylenedioxy-3,4-dihydro-5H-2,3-benzodiazepine] | 120 | 23.5 | 22.8 | 34.2 | 36.8 | 25.4 | – | – | – | – | –
17 | CCN(CC)CC(=O)Nc1ccc(C2=NN(C(C)=O)C(C)Cc3cc4c(cc32)OCO4)cc1 (stereo not drawn) [Example 108, 1-[4-(N,N-diethylglycylamino)phenyl]-3-acetyl-4-methyl-7,8-methylenedioxy-3,4-dihydro-5H-2,3-benzodiazepine] | > 100 | 27 | – | – | – | – | – | – | – | – | –
18 | CC(=O)N1N=C(c2ccc(NC(=O)CN3CCCC3)cc2)c2cc3c(cc2CC1C)OCO3 (stereo not drawn) [Example 109, 1-[4-(1-Pyrrolidinoacetylamino)phenyl]-3-acetyl-4-methyl-7,8-methylenedioxy-3,4-dihydro-5H-2,3-benzodiazepine hydrogen fumarate] | > 100 | 21 | – | – | – | – | – | – | – | – | –
19 | CNC(=O)N1N=C(c2ccc(NC(=O)CN)cc2)c2cc3c(cc2CC1C)OCO3 (stereo not drawn) [Example 115, 1-(4-Glycylaminophenyl)-3-methylcarbamoyl-4-methyl-7,8-methylenedioxy-3,4-dihydro-5H-2,3-benzodiazepine] | 23.9 | 17.1 | – | – | – | – | 90.7 | 200 to 250 | 16.1 | 7.3 | –
20 | C[C@]12N[C@H](Cc3ccccc31)c1ccccc12 [MK-801, (+)-10,11-dihydro-5-methyl-5H-dibenzo[a,d]cyclohepten-5,10-imine (Z)-2-butene-dioate, reference compound] | – | – | – | – | – | – | – | – | – | – | (DOPAC + HVA)/DA, % ([11]; % of saline group): 132%; DA, % ([11]; % of saline group): 66%; (DOPAC + HVA)/DA, mean ± SE ([11]; striatal dopamine turnover): 0.33 ± 0.06; DA, μg/g tissue, mean ± SE ([11]; striatal dopamine): 10.01 ± 1.10 μg/g tissue
21 | O=C1NC(=O)C(c2ccccc2)(c2ccccc2)N1 [Phenytoin, 5,5-diphenyl-2,4-imidazolidinedione, reference compound] | > 400 | 10 | 160 | 12 | – | > 200 | – | – | – | – | –
